Assay results as given in US20250090524A1, “BTK INHIBITORS” (BIOGEN MA INC., priority 2021, published 2025).

Tests used:
[1] = target: T1, BTK (Homo sapiens, UniProt Q06187); assay: In Vitro BTK Kinase Assay: Btk-PolyGAT-LS Assay; assay type: biochemical; conditions: active BTK enzyme 0.25 nM, fluorescein-labeled polyGAT peptide 100 nM, 30 minutes incubation, TRF readout; read-out: In Vitro BTK Kinase Assay IC50 Score
T1 construct: purchased Upstate 14-552
Experimental: The purpose of the BTK in vitro assay is to determine compound potency against BTK through the measurement of IC50. Compound inhibition is measured after monitoring the amount of phosphorylation of a fluorescein-labeled polyGAT peptide (Invitrogen PV3611) in the presence of active BTK enzyme (Upstate 14-552), ATP, and inhibitor. The BTK kinase reaction was done in a black 96 well plate (costar 3694). For a typical assay, a 24 μL aliquot of a ATP/peptide master mix (final concentration; ATP […], polyGAT 100 nM) in kinase buffer (10 mM Tris-HCl pH 7.5, 10 mM MgCl2, 200 μM […], 5 mM DTT, 0.01% Triton X-100, and 0.2 mg/ml casein) is added to each well. Next, I uL of a 4-fold, 40× compound titration in 100% DMSO solvent is added, followed by adding […] of BTK enzyme mix in 1× kinase buffer (with a final concentration of 0.25 nM). The assay is incubated for 30 minutes before being stopped with […] of a 50 mM EDTA solution. Aliquots (5 uL) of the kinase reaction are transferred to a low volume white 384 well plate (Corning 3674), and […] of a 2× detection buffer (Invitrogen PV3574, with 4 nM Tb-PY20 antibody, Invitrogen PV3552) is added. The plate is covered and incubated for 45 minutes at room temperature. Time resolved fluorescence (TRF) on Molecular Devices M5 (332 nm excitation; 488 nm emission; 518 nm fluorescein emission) is measured. IC50 values are calculated using a four parameter fit with 100% enzyme activity determined from the DMSO control and 0% activity from the EDTA control.
“†” represents an IC50 of greater than 1 μM and equal to or less than 10 μM. “††” represents an IC50 of greater than 10 nM and equal to or less than 1 μM (10 nM<IC50≤1 μM). “†††” represents an IC50 of greater than 1 nM and equal to or less than 10 nM (1 nM<IC50≤10 nM). “††††” represents an IC50 of less than 1 nM.

[2] = tested on: CD69 expression on CD19+ B cells in human whole blood; assay: In Vitro Whole Blood CD69 Assay; assay type: cell-based; conditions: B-cell; human heparinized whole blood, anti-human IgD stimulation, overnight (18 to 22 hours), percentage of CD19+ B cells expressing CD69, flow cytometry; read-out: In Vitro HWB CD69 Assay IC50 Score
Experimental: Human heparinized venous blood from health donors was aliquoted into 96-well plate and “spiked” with serial dilutions of formula I compounds in DMSO or with DMSO without drug. The final concentration of DMSO in all wells was 0.1%. The plate was incubated at 37° C. for 30 min. Drug-containing samples were stimulated with […] mouse anti-human IgD-dextran (1A62) or 20 μg/mL polyclonal rabbit F(ab′)2 anti-human IgD.
Phosphate-buffered saline (PBS) was added to the negative control unstimulated sample and the plates were incubated overnight (18 to 22 hours) at 37° C. Cells were stained with fluorochrome-conjugated anti-CD19 and anti-CD69 antibodies. Lyse/fix solution was used to remove red blood cells by hypotonic lysis and to fix the remaining cells, which were then analyzed by flow cytometry. CD19+B cells were gated and analyzed for CD69 expression.
The percentage of B cells expressing CD69 was plotted versus the log 10 of the concentration of the drug and the best-fit curves (variable Hill slope) were generated to obtain the IC50 value.
“†” represents an IC50 of greater than 10 μM. “††” represents an IC50 of greater than 1 μM and equal to or less than 10 μM (1 μM<IC50≤10 μM). “†††” represents an IC50 of less than 1 μM.

T1 sequence (Q06187 whole entry): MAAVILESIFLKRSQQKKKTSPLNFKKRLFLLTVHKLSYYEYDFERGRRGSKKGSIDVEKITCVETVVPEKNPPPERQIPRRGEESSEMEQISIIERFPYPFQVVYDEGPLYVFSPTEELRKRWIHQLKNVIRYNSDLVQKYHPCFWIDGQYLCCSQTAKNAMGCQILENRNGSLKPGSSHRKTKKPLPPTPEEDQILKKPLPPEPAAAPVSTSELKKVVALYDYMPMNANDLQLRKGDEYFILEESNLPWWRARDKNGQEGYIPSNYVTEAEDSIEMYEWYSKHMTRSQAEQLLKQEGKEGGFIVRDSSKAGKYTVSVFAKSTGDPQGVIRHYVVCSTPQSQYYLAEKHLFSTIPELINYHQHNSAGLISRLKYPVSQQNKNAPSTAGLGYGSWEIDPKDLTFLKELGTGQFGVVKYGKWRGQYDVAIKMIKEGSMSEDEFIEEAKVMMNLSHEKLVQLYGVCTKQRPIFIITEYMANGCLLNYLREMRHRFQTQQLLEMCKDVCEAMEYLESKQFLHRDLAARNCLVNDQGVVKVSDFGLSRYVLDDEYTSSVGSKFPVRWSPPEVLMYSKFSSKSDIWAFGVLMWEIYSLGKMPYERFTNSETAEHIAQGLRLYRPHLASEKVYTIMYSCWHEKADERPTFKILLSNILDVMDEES

| SMILES | IC50 [1] | IC50 [2] |
| --- | --- | --- |
| C=CC(=O)N(C)[C@H]1CC[C@H](C(=O)c2nc(-c3cnn(C)c3)cn3nccc23)C1 (relative stereo) [Example 18, N-methyl-N-(3-(6-(1-methyl-1H-pyrazol-4-yl)pyrazolo[1,5-a]pyrazine-4-carbonyl)cyclopentyl)acrylamide] | 1000 to 10000 nM | 1000 to 10000 nM |
| C=CC(=O)N1C[C@H]2C[C@@H](c3nc(-c4cnn(C)c4)cn4nccc34)C[C@H]2C1 (single isomer, unassigned) [Example 1] | < 1 nM | < 1000 nM |
| C=CC(=O)N(C)C1CCC(C(=O)c2nc(-c3cnn(C)c3)cn3nccc23)C1 (single isomer, unassigned) [Example 16, N-methyl-N-(3-(6-(1-methyl-1H-pyrazol-4-yl)pyrazolo[1,5-a]pyrazine-4-carbonyl)cyclopentyl)acrylamide] | 1 to 10 nM | 1000 to 10000 nM |
| C=CC(=O)N(C)[C@H]1CC[C@@H](C(=O)c2nc(-c3cnn(C)c3)cn3nccc23)C1 (stereo in doubt) [Example 17, N-methyl-N-(3-(6-(1-methyl-1H-pyrazol-4-yl)pyrazolo[1,5-a]pyrazine-4-carbonyl)cyclopentyl)acrylamide] | 10 to 1000 nM |  |
| C=CC(=O)N1C[C@H]2C[C@H](c3nc(-c4cnn(C)c4)cn4nccc34)C[C@H]2C1 [Example 2, 1-[(3aS,6aR)-5-[6-(1-methylpyrazol-4-yl)pyrazolo[1,5-a]pyrazin-4-yl]-3,3a,4,5,6,6a-hexahydro-1H-cyclopenta[c]pyrrol-2-yl]prop-2-en-1-one] | 1 to 10 nM | 1000 to 10000 nM |
| C=CC(=O)N1CC2CC(c3cc(-c4cnn(C)c4)cn4nccc34)CC2C1 (stereo not shown) [Example 3, 1-[5-[6-(1-methylpyrazol-4-yl)pyrazolo[1,5-a]pyridin-4-yl]-3,3a,4,5,6,6a-hexahydro-1H-cyclopenta[c]pyrrol-2-yl]prop-2-en-1-one] | < 1 nM | < 1000 nM |
| C=CC(=O)N1CCC(c2nc(-c3cnn(C)c3)cn3nccc23)CC1 [Example 4, 1-[4-[6-(1-methylpyrazol-4-yl)pyrazolo[1,5-a]pyrazin-4-yl]-1-piperidyl]prop-2-en-1-one] | 1 to 10 nM | 1000 to 10000 nM |
| C=CC(=O)N1CCCC(c2nc(-c3cnn(C)c3)cn3nccc23)C1 (stereo not shown) [Example 5, 1-[3-[6-(1-methylpyrazol-4-yl)pyrazolo[1,5-a]pyrazin-4-yl]-1-piperidyl]prop-2-en-1-one] | 10 to 1000 nM |  |
| C=CC(=O)N1CCCC(c2nc(-c3cnn(C)c3)cn3nccc23)CC1 (stereo not shown) [Example 6, 1-[4-[6-(1-methylpyrazol-4-yl)pyrazolo[1,5-a]pyrazin-4-yl]azepan-1-yl]prop-2-en-1-one] | 10 to 1000 nM | 1000 to 10000 nM |
| C=CC(=O)N1CCC(c2nc(-c3cnn(C)c3)cn3ncc(F)c23)CC1 [Example 7, 1-[4-[3-fluoro-6-(1-methylpyrazol-4-yl)pyrazolo[1,5-a]pyrazin-4-yl]-1-piperidyl]prop-2-en-1-one] | 1 to 10 nM | < 1000 nM |
| C=CC(=O)N1CCC(c2cc(-c3cnn(C)c3)cn3nccc23)CC1 [Example 8, 1-[4-[6-(1-methylpyrazol-4-yl)pyrazolo[1,5-a]pyridin-4-yl]-1-piperidyl]prop-2-en-1-one] | 1 to 10 nM | 1000 to 10000 nM |
| C=CC(=O)N1CCC(c2nc(-c3cnn(C)c3)cn3ncc(C)c23)CC1 [Example 9, 1-[4-[3-methyl-6-(1-methylpyrazol-4-yl)pyrazolo[1,5-a]pyrazin-4-yl]-1-piperidyl]prop-2-en-1-one] | 1 to 10 nM | 1000 to 10000 nM |
| C=CC(=O)N1CC=C(c2nc(-c3cnn(C)c3)cn3ncc(C)c23)CC1 [Example 10, 1-[4-[3-methyl-6-(1-methylpyrazol-4-yl)pyrazolo[1,5-a]pyrazin-4-yl]-3,6-dihydro-2H-pyridin-1-yl]prop-2-en-1-one] | 10 to 1000 nM |  |
| C=CC(=O)N1CCC(c2nc(-c3cnn(C)c3)cn3nccc23)CC1C (stereo not shown) [Example 12, 1-[2-methyl-4-[6-(1-methylpyrazol-4-yl)pyrazolo[1,5-a]pyrazin-4-yl]-1-piperidyl]prop-2-en-1-one] | 10 to 1000 nM |  |

Next, values leading:

| IC50 [1] | IC50 [2] | SMILES |
| --- | --- | --- |
| 10 to 1000 nM | 1000 to 10000 nM | C=CC(=O)N(C)[C@@H]1CCC[C@@H](c2nc(-c3cnn(C)c3)cn3nccc23)C1 (single isomer, unassigned) [Example 24, trans-N-methyl-N-(3-(6-(1-methyl-1H-pyrazol-4-yl)pyrazolo[1,5-a]pyrazin-4-yl)cyclohexyl)acrylamide] |
| 10 to 1000 nM | 1000 to 10000 nM | C=CC(=O)N(C)[C@H]1CCC[C@H](c2nc(-c3cnn(C)c3)cn3nccc23)C1 (single isomer, unassigned) [Example 25, trans-N-methyl-N-(3-(6-(1-methyl-1H-pyrazol-4-yl)pyrazolo[1,5-a]pyrazin-4-yl)cyclohexyl)acrylamide] |
| 1 to 10 nM | 1000 to 10000 nM | C=CC(=O)N(C)[C@H]1CCC[C@@H](c2nc(-c3cnn(C)c3)cn3nccc23)C1 (single isomer, unassigned) [Example 26, cis-N-methyl-N-(3-(6-(1-methyl-1H-pyrazol-4-yl)pyrazolo[1,5-a]pyrazin-4-yl)cyclohexyl)acrylamide] |
| 10 to 1000 nM | 1000 to 10000 nM | C=CC(=O)N(C)[C@@H]1CCC[C@H](c2nc(-c3cnn(C)c3)cn3nccc23)C1 (single isomer, unassigned) [Example 27, cis-N-methyl-N-(3-(6-(1-methyl-1H-pyrazol-4-yl)pyrazolo[1,5-a]pyrazin-4-yl)cyclohexyl)acrylamide] |
| 10 to 1000 nM |  | C=CC(=O)N1CCC[C@@H](Sc2nc(-c3cnn(C)c3)cn3nccc23)CC1 (single isomer, unassigned) [Example 30] |
| 1000 to 10000 nM |  | C=CC(=O)N1CCC[C@H](Sc2nc(-c3cnn(C)c3)cn3nccc23)CC1 (single isomer, unassigned) [Example 31] |
| 1000 to 10000 nM | < 1000 nM | C=CC(=O)N(C)[C@@H]1CC[C@H](C(=O)c2nc(-c3cnn(C)c3)cn3nccc23)C1 (stereo in doubt) [Example 19, N-methyl-N-(3-(6-(1-methyl-1H-pyrazol-4-yl)pyrazolo[1,5-a]pyrazine-4-carbonyl)cyclopentyl)acrylamide] |
| 10 to 1000 nM |  | C=CC(=O)N(C)C[C@H]1CC[C@H](c2nc(-c3cnn(C)c3)cn3nccc23)C1 (stereo in doubt) [Example 20, N-methyl-N-((3-(6-(1-methyl-1H-pyrazol-4-yl)pyrazolo[1,5-a]pyrazin-4-yl)cyclopentyl)methyl)acrylamide] |
| 1 to 10 nM |  | C=CC(=O)N(C)C[C@H]1CC[C@@H](c2nc(-c3cnn(C)c3)cn3nccc23)C1 (stereo in doubt) [Example 21, N-methyl-N-((3-(6-(1-methyl-1H-pyrazol-4-yl)pyrazolo[1,5-a]pyrazin-4-yl)cyclopentyl)methyl)acrylamide] |
| 10 to 1000 nM |  | C=CC(=O)N(C)C[C@@H]1CC[C@H](c2nc(-c3cnn(C)c3)cn3nccc23)C1 (stereo in doubt) [Example 22, N-methyl-N-((3-(6-(1-methyl-1H-pyrazol-4-yl)pyrazolo[1,5-a]pyrazin-4-yl)cyclopentyl)methyl)acrylamide] |
| 10 to 1000 nM |  | C=CC(=O)N(C)C[C@@H]1CC[C@@H](c2nc(-c3cnn(C)c3)cn3nccc23)C1 (stereo in doubt) [Example 23, N-methyl-N-((3-(6-(1-methyl-1H-pyrazol-4-yl)pyrazolo[1,5-a]pyrazin-4-yl)cyclopentyl)methyl)acrylamide] |
